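Following 48 hours of exposure in 96-well plates, responses at five concentrations were used to interpolate endpoints linearly. GI50 marks 50% less growth.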 The source made the active and inactive calls. Cut-off read from the data, not from the text of the source: active = GI50 up to about 1.1 µM and inactive = higher.
Tests used:
Experiment in all cases: NCI anticancer screen, dose series, 48 h
BT-549 = tested on: BT-549
HCT-116 = tested on: HCT-116
UO-31 = tested on: UO-31
MCF7 = tested on: MCF7
ACHN = tested on: ACHN
CAKI-1 = tested on: CAKI-1
MDA-MB-435 = tested on: MDA-MB-435
MDA-MB-231 = tested on: MDA-MB-231
HOP-92 = tested on: HOP-92
OVCAR-4 = tested on: OVCAR-4
IGROV-1 = tested on: IGROV-1
HCT-15 = tested on: HCT-15
HOP-62 = tested on: HOP-62
A549 = tested on: A549
NCI-H23 = tested on: NCI-H23
NCI-H460 = tested on: NCI-H460
OVCAR-8 = tested on: OVCAR-8
SW-620 = tested on: SW-620
CCRF-CEM = tested on: CCRF-CEM
SF-539 = tested on: SF-539

SMILES	GI50 (BT-549)	GI50 (HCT-116)	GI50 (UO-31)	GI50 (MCF7)	GI50 (ACHN)	GI50 (CAKI-1)	GI50 (MDA-MB-435)	GI50 (MDA-MB-231)	GI50 (HOP-92)	GI50 (OVCAR-4)	GI50 (IGROV-1)	GI50 (HCT-15) [µM]	GI50 (HOP-62)	GI50 (A549)	GI50 (NCI-H23)	GI50 (NCI-H460)	GI50 (OVCAR-8)	GI50 (SW-620)	GI50 (CCRF-CEM)	GI50 (SF-539)
CCCCc1c(C(=O)OC(C)(C)C)cc(C#Cc2cc(C(=O)OC(C)(C)C)c(CCCC)c(C(=O)OC(C)(C)C)c2)cc1C(=O)OC(C)(C)C	> 100 µM (inactive)	> 100 µM (inactive)	> 100 µM (inactive)	> 100 µM (inactive)	> 100 µM (inactive)	> 100 µM (inactive)	> 100 µM (inactive)	> 100 µM (inactive)	> 100 µM (inactive)	> 100 µM (inactive)	> 100 µM (inactive)	> 100	> 100 µM (inactive)	> 100 µM (inactive)	> 100 µM (inactive)	> 100 µM (inactive)				
c1ccc2sc(SCCSc3nc4ccccc4s3)nc2c1	> 100 µM (inactive)	> 100 µM (inactive)	> 100 µM (inactive)	> 100 µM (inactive)	> 100 µM (inactive)	> 100 µM (inactive)	> 100 µM (inactive)	> 100 µM (inactive)	> 100 µM (inactive)	52.1 µM (inactive)	> 100 µM (inactive)	> 100	> 100 µM (inactive)	> 100 µM (inactive)	> 100 µM (inactive)	> 100 µM (inactive)	> 100 µM (inactive)	> 100 µM (inactive)		
CCC1C(C#N)=C(N)OC2=C1C(=O)CC(C)(C)C2 (configuration not stated)	> 100 µM (inactive)	> 100 µM (inactive)		> 100 µM (inactive)	> 100 µM (inactive)	> 100 µM (inactive)	> 100 µM (inactive)	> 100 µM (inactive)	> 100 µM (inactive)	> 100 µM (inactive)	> 100 µM (inactive)	> 100	> 100 µM (inactive)	> 100 µM (inactive)	> 100 µM (inactive)	> 100 µM (inactive)	> 100 µM (inactive)	> 100 µM (inactive)	> 100 µM (inactive)	> 100 µM (inactive)
O=C(O)CCNC(=O)c1cc(N(CCBr)CCBr)c([N+](=O)[O-])cc1[N+](=O)[O-]	> 100 µM (inactive)	> 100 µM (inactive)	> 100 µM (inactive)	> 100 µM (inactive)	> 100 µM (inactive)	> 100 µM (inactive)	> 100 µM (inactive)	> 100 µM (inactive)	> 100 µM (inactive)	> 100 µM (inactive)	> 100 µM (inactive)	> 100	> 100 µM (inactive)	> 100 µM (inactive)	> 100 µM (inactive)	> 100 µM (inactive)	> 100 µM (inactive)	> 100 µM (inactive)	> 100 µM (inactive)	
COc1ncc(C#CC(=O)c2ccccc2)c(OC)n1	2.17 µM (inactive)	4.95 µM (inactive)	2.03 µM (inactive)	0.378 µM (active)	1.77 µM (inactive)	2.76 µM (inactive)	3.91 µM (inactive)	1.95 µM (inactive)	2.15 µM (inactive)	4.7 µM (inactive)	2.1 µM (inactive)	1.37	19.3 µM (inactive)	11.6 µM (inactive)	4.33 µM (inactive)	13.4 µM (inactive)	2.78 µM (inactive)	1.63 µM (inactive)	0.183 µM (active)	
Cc1ccc(C)c(COCCOCn2cc(Br)c(N)nc2=O)c1	> 100 µM (inactive)	> 100 µM (inactive)	> 100 µM (inactive)	> 100 µM (inactive)	> 100 µM (inactive)	> 100 µM (inactive)	> 100 µM (inactive)	> 100 µM (inactive)	> 100 µM (inactive)		> 100 µM (inactive)	> 100	57.3 µM (inactive)	> 100 µM (inactive)	> 100 µM (inactive)	> 100 µM (inactive)	> 100 µM (inactive)	> 100 µM (inactive)	> 100 µM (inactive)	> 100 µM (inactive)
OC(c1cc2ccccc2[nH]1)C1(c2cccnc2)SCCCS1 (configuration not stated)	57.9 µM (inactive)	59 µM (inactive)	25.2 µM (inactive)	39.5 µM (inactive)	86.5 µM (inactive)	> 100 µM (inactive)	33.6 µM (inactive)	23.1 µM (inactive)	> 100 µM (inactive)	48.8 µM (inactive)	53.8 µM (inactive)	84.7	50.2 µM (inactive)	47.6 µM (inactive)	35.6 µM (inactive)	94.6 µM (inactive)	63.8 µM (inactive)	90.6 µM (inactive)		
O=C(c1ccc(Cl)c(Cl)c1)N(Cc1cccnc1)C(=S)N(Cc1cccnc1)C(=O)c1ccc(Cl)c(Cl)c1	22.9 µM (inactive)	25.2 µM (inactive)	17.9 µM (inactive)	7.06 µM (inactive)	18.8 µM (inactive)	31.6 µM (inactive)	62.5 µM (inactive)	33.1 µM (inactive)	36.1 µM (inactive)	25.8 µM (inactive)		20	27.4 µM (inactive)	> 100 µM (inactive)	37.8 µM (inactive)	44.7 µM (inactive)	30.5 µM (inactive)	29.2 µM (inactive)	94 µM (inactive)	22.1 µM (inactive)

From ChEMBL document CHEMBL1201862, “PubChem BioAssay data set” (2004)
